Measurements as given in patent EP1203770A1 (priority 1992, dated 1994).

Molecular target: T1, HIV-1 protease (Human immunodeficiency virus type 1 group M subtype B, UniProt P04585)
T1 construct: The protease (or proteinase), consisting of only 99 amino acids, is among the smallest enzymes known
Experiment: In vitro HIV protease inhibitory assay (HIV Protease FITC Assay)
Type: biochemical
Conditions: for inhibition at 0.123 µM / inhibition at 0.37 µM / inhibition at 1.1 µM / inhibition at 3.3 µM / inhibition at 10 µM / inhibition at 30 µM: read-out: HIV-1 Protease % Inhib; for Ki: read-out: HIV-1 FITC Ki
How it was run: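 Biotin/FITC-labelled peptide substrate cleaved by HIV-1 protease for 1 h at room temperature in the dark, in 0.1 M sodium acetate pH 5.5, 1.0 M NaCl, 0.05% NP-40. Uncleaved substrate captured on avidin beads and separated by filtration; fluorescence gave % inhibition.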

Compound | inhibition at 0.123 µM (HIV-1 Dose 0.123 uM) | inhibition at 0.37 µM (HIV-1 Dose 0.370 uM) | inhibition at 1.1 µM (HIV-1 Dose 1.100 uM) | inhibition at 3.3 µM (HIV-1 Dose 3.300 uM) | inhibition at 10 µM (HIV-1 Dose 10.000 uM) | inhibition at 30 µM (HIV-1 Dose 30.000 uM) | Ki | HIV-1 Protease % Inhib (HIV-1 Dose 0.123 uM) | HIV-1 Protease % Inhib (HIV-1 Dose 0.370 uM) | HIV-1 Protease % Inhib (HIV-1 Dose 1.100 uM) | HIV-1 Protease % Inhib (HIV-1 Dose 3.300 uM) | HIV-1 Protease % Inhib (HIV-1 Dose 10.000 uM) | HIV-1 Protease % Inhib (HIV-1 Dose 30.000 uM)
CCCC1(Cc2ccccc2)CC(O)=C(C(C=Cc2ccccc2)c2ccccc2)C(=O)O1 (stereo not shown) [Example 176, 3-(1,3-Diphenyl-2-propenyl)-5,6-dihydro-4-hydroxy-6-(phenylmethyl)-6-propyl-2H-pyran-2-one] | < 10% | < 10% | 28.9% | 62.3% | 88.7% | 101% |  |  |  |  |  |  | 
CCCC1(Cc2ccccc2)CC(O)=C(C(CCc2ccccc2)c2ccccc2)C(=O)O1 (stereo not shown) [Example 177, 3-(1,3-Diphenylpropyl)-5,6-dihydro-4-hydroxy-6-(phenylmethyl)-6-propyl-2H-pyran-2-one] | < 10% | 19.7% | 48.2% | 74.2% | 89.3% | 95% |  |  |  |  |  |  | 
CCC(Cc1ccccc1)c1cc(O)c(C(c2cccc(NS(=O)(=O)c3ccccc3)c2)C2CC2)c(=O)o1 (stereo not drawn) [Example 178, 3-(α-Cyclopropyl-meta-(phenylsulfonylamino)benzyl)-6-(α-ethylphenethyl)-4-hydroxy-2H-pyran-2-one] | 21.6% | 61.9% | 83.1% | 95.5% | 104% | 107% | 17.4 nM |  |  |  |  |  | 
CCCS(=O)(=O)Nc1cccc(C(c2c(O)cc(C(CC)Cc3ccccc3)oc2=O)C2CC2)c1 (stereo not drawn) [Example 179, 3-(α-Cyclopropyl-meta-(propylsulfonylamino)benzyl)-6-(α-etylphenethyl)-4-hydroxy-2H-pyran-2-one] | 23.7% | 61.9% | 77.9% | 94.4% | 95.1% | 102% | 40 nM |  |  |  |  |  | 
CCC(Cc1ccccc1)c1cc(O)c(C(c2cccc(NS(=O)(=O)/C=C/c3ccccc3)c2)C2CC2)c(=O)o1 (stereo not drawn) [Example 180, 3-(α-Cyclopropyl-meta-((E)-2-phenylethenylsulfonylamino)benzyl)-6-(α-ethylphenethyl)-4-hydroxy-2H-pyran-2-one] | 32% | 55.9% | 80.5% | 91.9% | 99.5% | 98% | 23.3 nM |  |  |  |  |  | 
CCC(Cc1ccccc1)c1cc(O)c(C(c2cccc(NS(=O)(=O)c3ccc(Br)cc3)c2)C2CC2)c(=O)o1 (stereo not drawn) [Example 181, 3-(α-Cyclopropyl-meta-(4-bromophenylsulfonylamino)benzyl)-6-(α-ethylphenethyl)-4-hydroxy-2H-pyran-2-one] | 32.6% | 64.5% | 82.4% | 95.3% | 101% | 95.5% | 18.9 nM |  |  |  |  |  | 
CCC(Cc1ccccc1)c1cc(O)c(C(c2cccc(NS(=O)(=O)c3cc(Cl)ccc3Cl)c2)C2CC2)c(=O)o1 (stereo not drawn) [Example 182, 3-(α-Cyclopropyl-meta-(2,5-dichlorophenylsulfonylamino)benzyl)-6-(α-ethylphenethyl)-4-hydroxy-2H-pyran-2-one] | < 10% | 15% | 45.7% | 71.9% | 94.9% | 96.5% |  |  |  |  |  |  | 
CCC(Cc1ccccc1)c1cc(O)c(C(c2cccc(NS(=O)(=O)c3ccc(C(C)(C)C)cc3)c2)C2CC2)c(=O)o1 (stereo not drawn) [Example 183, 3-(α-Cyclopropyl-meta-(4-tert-butylphenylsulfonylamino)benzyl)-6-(α-ethylphenethyl)-4-hydroxy-2H-pyran-2-one] | < 10% | 11.9% | 28.2% | 60.6% | 88.9% | 90.8% |  |  |  |  |  |  | 
CCC(Cc1ccccc1)c1cc(O)c(C(c2cccc(NS(=O)(=O)c3ccc(C#N)cc3)c2)C2CC2)c(=O)o1 (stereo not drawn) [Example 184, 3-(α-Cyclopropyl-meta-(4-cyanophenylsulfonylamino)benzyl)-6-(α-ethylphenethyl)-4-hydroxy-2H-pyran-2-one] | 65% | 87% | 94.5% | 99% | 102% | 102% | 5.7 nM |  |  |  |  |  | 
CCC(Cc1ccccc1)c1cc(O)c(C(c2cccc(NS(=O)(=O)c3ccc(OC)cc3)c2)C2CC2)c(=O)o1 (stereo not drawn) [Example 185, 3-(α-Cyclopropyl-meta-(4-methoxyphenylsulfonylamino)benzyl)-6-(α-ethylphenethyl)-4-hydroxy-2H-pyran-2-one] | 40.5% | 71.4% | 89.1% | 95.9% | 103% | 92.9% |  |  |  |  |  |  | 
CCC(c1ccccc1)c1cc(O)c(C(CC)c2ccccc2)c(=O)o1 (stereo not drawn) [Example 186, 3-α-Ethylbenzyl-6-α-ethylbenzyl-4-hydroxy-2H-pyran-2-one] | < 10% | < 10% | < 10% | 11% | 41.6% | 61.6% | 22.4 nM |  |  |  |  |  | 
CC[C@H](Cc1ccccc1)c1cc(O)c([C@@H](CC)c2ccccc2)c(=O)o1 [Example 189, 3-([S]-α-ethylbenzyl)-4-hydroxy-6-([R]-α-ethylphenethyl)-2H-pyran-2-one] |  |  |  |  |  |  | ~15 nM |  |  |  |  |  | 
CC(C)CC1(CCc2ccccc2)CC(O)=C(C(c2ccccc2)c2ccccc2)C(=O)O1 (stereo not shown) [Example 209, 2H-Pyran-2-one, 3-diphenylmethyl-5,6-dihydro-4-hydroxy-6-(2-methylpropyl)-6-(2-phenylethyl)-] | < 10% | 12% | 32.2% | 59.9% | 76.7% | 77.8% | 92 nM |  |  |  |  |  | 
CC(C)CC1(CCc2ccccc2)CC(O)=C(C(/C=C/c2ccccc2)c2ccccc2)C(=O)O1 (stereo not shown) [Example 210, 2H-Pyran-2-one, 3-(1,3-diphenyl-2-propenyl)-5.6-dihydro-4-hydroxy-6-(2-methylpropyl)-6-(2-phenylethyl)-] | < 10% | < 10% | 37.5% | 61% | 75% | 86% | 78 nM |  |  |  |  |  | 
CC(C)CC1(CCc2ccccc2)CC(O)=C(C(CCc2ccccc2)c2ccccc2)C(=O)O1 (stereo not shown) [Example 211] |  |  |  |  |  |  | 64 nM | <10% | 21.39% | 47.29% | 66.35% | 89.15% | 92.11%
CCC(Cc1ccccc1)c1cc(O)c(C(c2cccc(NC(=O)Nc3ccccc3)c2)C2CC2)c(=O)o1 (stereo not drawn) [Example 212, 3-(α-Cyclopropyl-meta-[(phenylaminocarbonyl)amino]benzyl)-6-(α-ethylphenethyl)-4-hydroxy-2H-pyran-2-one] | < 10% | < 10% | 17.8% | 43.2% | 67.1% | 69.6% |  |  |  |  |  |  | 
CCC(Cc1ccccc1)c1cc(O)c(C(c2cccc(NC(=O)NCc3ccccc3)c2)C2CC2)c(=O)o1 (stereo not drawn) [Example 213, 3-(α-Cyclopropyl-meta-[(benzylaminocarbonyl)amino]benzyl)-6-(α-ethylphenethyl)-4-hydroxy-2H-pyran-2-one] | < 10% | 12.1% | 30% | 55.4% | 83.7% | 85.8% |  |  |  |  |  |  | 
